Data published in ChEMBL document CHEMBL2321708, “Modulators of the GPR119 Receptor for the Treatment of Metabolic Syndrome” (ACS Med Chem Lett, 2013).
Values belong to the molecule of their own block, whether it stands above or below them.

Assays:
Type in all cases: functional
[1] = target: T1, Glucose-dependent insulinotropic receptor (Homo sapiens, UniProt Q8TDV5); assay: Agonist activity at human GPR119 by HTRF cAMP assay
T1 sequence (Q8TDV5 whole entry): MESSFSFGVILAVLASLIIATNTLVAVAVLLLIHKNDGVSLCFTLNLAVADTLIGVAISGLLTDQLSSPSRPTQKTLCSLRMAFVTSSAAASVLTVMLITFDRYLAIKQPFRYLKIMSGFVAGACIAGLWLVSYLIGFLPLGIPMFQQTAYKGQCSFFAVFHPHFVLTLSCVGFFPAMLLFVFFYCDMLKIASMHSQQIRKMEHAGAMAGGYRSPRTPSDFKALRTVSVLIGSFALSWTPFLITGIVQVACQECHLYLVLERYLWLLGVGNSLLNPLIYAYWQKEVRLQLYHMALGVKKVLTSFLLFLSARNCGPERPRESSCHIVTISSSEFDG

[2] = system: unidentified; assay: Effect on glucose homeostasis in diabetes model (unknown origin) assessed as release of GIP at 30 mg/kg, […] measured 40 mins post glucose challenge
[3] = system: unidentified; assay: Effect on glucose homeostasis in diabetes model (unknown origin) assessed as release of GIP at 30 mg/kg, po administered intratracheally measured 30 mins before glucose challenge
[4] = Effect on glucose homeostasis in diabetes model (unknown origin) assessed as release of GIP at 3 mg/kg, […] measured 20 mins post glucose challenge
[5] = system: unidentified; assay: Effect on glucose homeostasis in diabetes model (unknown origin) assessed as release of GIP at 30 mg/kg, […] measured 60 mins post glucose challenge
[6] = Effect on glucose homeostasis in diabetes model (unknown origin) assessed as release of GIP at 3 mg/kg, […] measured 120 mins post glucose challenge
[7] = system: unidentified; assay: Effect on glucose homeostasis in diabetes model (unknown origin) assessed as release of GIP at 30 mg/kg, […] measured 20 mins post glucose challenge
[8] = Effect on glucose homeostasis in diabetes model (unknown origin) assessed as release of GIP at 3 mg/kg, […] measured 40 mins post glucose challenge
[9] = Effect on glucose homeostasis in diabetes model (unknown origin) assessed as release of GIP at 3 mg/kg, […] measured 60 mins post glucose challenge
[10] = system: unidentified; assay: Effect on glucose homeostasis in diabetes model (unknown origin) assessed as release of GIP at 30 mg/kg, po administered intratracheally measured 120 mins post glucose challenge
[11] = Effect on glucose homeostasis in diabetes model (unknown origin) assessed as release of GIP at 3 mg/kg, […] measured 30 mins before glucose challenge

- EC50 [1]: 15 nM
SMILES: CC(C)(F)c1noc(N2CCC(COC3CC=C(c4ccc(S(C)(=O)=O)cc4)CC3)CC2)n1 (stereo not drawn)

- EC50 [1]: 38 nM
SMILES: CC(C)c1noc(N2CCC(CO[C@H]3CC[C@H](c4ccc(S(C)(=O)=O)cc4F)CC3)CC2)n1

SMILES: CCc1cnc(N2CCC(CO[C@H]3CC[C@H](c4ccc(S(C)(=O)=O)cc4F)CC3)CC2)nc1
- Activity [2]: 204.2%
- Activity [3]: 72.2%
- Activity [4]: 201.3%
- Activity [5]: 193.2%
- Activity [6]: 163.3%
- Activity [7]: 163.5%
- Activity [8]: 250.2%
- Activity [9]: 262.8%
- Activity [10]: 107.5%
- Activity [11]: 88.7%

- EC50 [1]: 707 nM
SMILES: CC(C)(C)OC(=O)N1CCC(CO[C@H]2CC[C@H](c3cnc(S(C)(=O)=O)cn3)CC2)CC1
